Series [1] is filed under the species Homo sapiens. Put plainly: Displacement of MABA-CDP from human recombinant UCK by fluorescence competition assay.
For series [2], the species on record is Homo sapiens. Kind of series: Activity at human recombinant UCK by Michaelis-Menten equation analysis.
Series [3] relates to Human alphaherpesvirus 3. Kind of series: Antiviral activity against VZV OKA expressing thymidine kinase infected in human HEL cells assessed as reduction of virus-induced cytopathogenicity after 5 days. It counts as functional, organism-based. The following applies: Human alphaherpesvirus 3, OKA, 120 h.
Series [4] in a line: Cytotoxicity against human HEL cells after 3 days. It counts as cell-based.
Series [5] concerns Human alphaherpesvirus 3. Put plainly: Antiviral activity against thymidine kinase-deficient VZV 07/1 infected in human HEL cells assessed as reduction of virus-induced cytopathogenicity after 5 days. It is filed as functional, organism-based. To be noted: Human alphaherpesvirus 3, 07/1, HEL, 120 h.
Series [6] has as its system Human alphaherpesvirus 1. Put plainly: Antiviral activity against acyclovir-resistant thymidine kinase deficient HSV1 KOS infected in human HEL cells assessed as reduction of virus-induced cytopathogenicity after 7 days. It is filed as functional, organism-based. To be noted: Human alphaherpesvirus 1, KOS, 168 h. Background: Cytopathic effects are the visible damage that an infection or toxin causes in cultured cells.

For a further series, the system named is Human alphaherpesvirus 2. Kind of series: Antiviral activity against HSV2 G infected in human HEL cells assessed as reduction of virus-induced cytopathogenicity after 7 days. It is filed as functional, organism-based. The following applies: Human alphaherpesvirus 2, strain G, 168 h.
Series [7] concerns Human alphaherpesvirus 1. Kind of series: Antiviral activity against HSV1 KOS infected in human HEL cells assessed as reduction of virus-induced cytopathogenicity after 7 days. The following applies: Human alphaherpesvirus 1, KOS, 168 h. It is filed as functional, organism-based.
Another series concerns Human betaherpesvirus 5. Put plainly: Antiviral activity against HCMV AD169/Davis infected in human HEL cells assessed as reduction of virus-induced cytopathogenicity after 7 days. It counts as functional, organism-based. To be noted: Human betaherpesvirus 5, AD169/Davis, 168 h.

Calls of active or inactive are those of the source. No rule for the calls is given here.

`COP(=O)(C/C=C\Cn1ccc(=O)[nH]c1=O)OC`: the outcome in the series filed under Homo sapiens [1] and in the series listed under Homo sapiens [2] was inactive.
Take `CCOP(=O)(CC/C=C/Cn1cc(F)c(=O)n(C(=O)c2ccccc2)c1=O)OCC`: the outcome in the series listed under Homo sapiens [1] and in the series filed under Homo sapiens [2] was inactive.
For `Cc1cn(C/C=C/CCP(=O)(O)O)c(=O)[nH]c1=O`, the result in the series listed under Homo sapiens [1] and in the series listed under Homo sapiens [2] was inactive.
For the compound `CCOP(=O)(CC/C=C/Cn1ccc(=O)n(C(=O)c2ccccc2)c1=O)OCC`, the result in the series filed under Homo sapiens [1] and in the series listed under Homo sapiens [2] was inactive.
With `O=c1[nH]c(=O)n(C/C=C/CCP(=O)(O)O)cc1Cl`, the outcome in the series filed under Homo sapiens [1] and in the series listed under Homo sapiens [2] was inactive.
As for `O=c1ccn(C/C=C/CP(=O)(O)O)c(=O)[nH]1`, the result in the series filed under Homo sapiens [1] and in the series filed under Homo sapiens [2] was inactive.
As for `COP(=O)(C/C=C/Cn1cc(Br)c(=O)[nH]c1=O)OC`, the result in the series filed under Homo sapiens [1] and in the series listed under Homo sapiens [2] was inactive.
`COP(=O)(C/C=C/Cn1cc(C)c(=O)[nH]c1=O)OC`: the result in the series filed under Homo sapiens [1] and in the series filed under Homo sapiens [2] was inactive.
For the compound `COP(=O)(C/C=C/Cn1cc(F)c(=O)[nH]c1=O)OC`, the outcome in the series filed under Homo sapiens [1] and in the series filed under Homo sapiens [2] was inactive.
On to `COP(=O)(C/C=C/Cn1cc(F)c(=O)n(C(=O)c2ccccc2)c1=O)OC`, for which the outcome in the series filed under Homo sapiens [1] and in the series listed under Homo sapiens [2] was inactive.
Regarding `COP(=O)(C/C=C/Cn1ccc(=O)n(C(=O)c2ccccc2)c1=O)OC`, the outcome in the series filed under Homo sapiens [1] and in the series filed under Homo sapiens [2] was inactive.
Turning to `O=c1[nH]c(=O)n(C/C=C/CP(=O)(O)O)cc1Br`, the outcome in the series listed under Homo sapiens [1] and in the series listed under Homo sapiens [2] was inactive.
Turning to `CCOP(=O)(CC/C=C/Cn1cc(Br)c(=O)[nH]c1=O)OCC`, the outcome in the series filed under Homo sapiens [1] and in the series filed under Homo sapiens [2] was inactive.
On to `CCOP(=O)(/C=C/Cn1cc(C)c(=O)[nH]c1=O)OCC`, for which the result in the series filed under Homo sapiens [1] and in the series filed under Homo sapiens [2] was inactive.
On to `O=c1ccn(C/C=C/P(=O)(O)O)c(=O)[nH]1`, for which the result in the series filed under Homo sapiens [1] and in the series listed under Homo sapiens [2] was inactive.
With `CCOP(=O)(CC/C=C/Cn1cc(C)c(=O)n(C(=O)c2ccccc2)c1=O)OCC`, the result in the series filed under Homo sapiens [1] and in the series filed under Homo sapiens [2] was inactive.
In the case of `COP(=O)(C/C=C\Cn1cc(Br)c(=O)n(C(=O)c2ccccc2)c1=O)OC`, the result in the series listed under Homo sapiens [1] and in the series filed under Homo sapiens [2] was inactive.
Consider `COP(=O)(C/C=C/Cn1ccc(=O)[nH]c1=O)OC`, for which the result in the series listed under Homo sapiens [1] and in the series filed under Homo sapiens [2] was inactive.
Regarding `COP(=O)(C/C=C/Cn1cc(Br)c(=O)n(C(=O)c2ccccc2)c1=O)OC`, the result in the series listed under Homo sapiens [1] and in the series listed under Homo sapiens [2] was inactive.
On to `COP(=O)(C/C=C\Cn1cc(Cl)c(=O)[nH]c1=O)OC`, for which the outcome in the series filed under Homo sapiens [1] and in the series listed under Homo sapiens [2] was inactive.
Take `CCOP(=O)(/C=C/Cn1cc(Br)c(=O)[nH]c1=O)OCC`: the result in the series listed under Homo sapiens [1] and in the series listed under Homo sapiens [2] was inactive.
With `COP(=O)(C/C=C\Cn1cc(Cl)c(=O)n(C(=O)c2ccccc2)c1=O)OC`, the result in the series filed under Homo sapiens [1] and in the series listed under Homo sapiens [2] was inactive.
Take `CCOP(=O)(/C=C/Cn1cc(Cl)c(=O)[nH]c1=O)OCC`: the outcome in the series listed under Homo sapiens [1] and in the series filed under Homo sapiens [2] was inactive.
In the case of `O=c1[nH]c(=O)n(C/C=C/CCP(=O)(O)O)cc1F`, the result in the series filed under Homo sapiens [1] and in the series listed under Homo sapiens [2] was inactive.
In the case of `CCOP(=O)(CC/C=C/Cn1cc(F)c(=O)[nH]c1=O)OCC`, the outcome in the series listed under Homo sapiens [1] and in the series filed under Homo sapiens [2] was inactive.
Turning to `COP(=O)(C/C=C\Cn1ccc(=O)n(C(=O)c2ccccc2)c1=O)OC`, the outcome in the series filed under Homo sapiens [1] and in the series listed under Homo sapiens [2] was inactive.
For `Cc1cn(C/C=C/P(=O)(O)O)c(=O)[nH]c1=O`, the outcome in the series listed under Homo sapiens [1] and in the series filed under Homo sapiens [2] was inactive.
With `COP(=O)(C/C=C\Cn1cc(C)c(=O)[nH]c1=O)OC`, the outcome in the series listed under Homo sapiens [1] and in the series filed under Homo sapiens [2] was inactive.
As to `CCOP(=O)(CC/C=C/Cn1cc(Cl)c(=O)[nH]c1=O)OCC`, the result in the series filed under Homo sapiens [1] and in the series filed under Homo sapiens [2] was inactive.
With `COP(=O)(C/C=C/Cn1cc(Cl)c(=O)n(C(=O)c2ccccc2)c1=O)OC`, the result in the series filed under Homo sapiens [1] and in the series filed under Homo sapiens [2] was inactive.
For `CCOP(=O)(CC/C=C/Cn1cc(Cl)c(=O)n(C(=O)c2ccccc2)c1=O)OCC`, the outcome in the series filed under Homo sapiens [1] and in the series filed under Homo sapiens [2] was inactive.
`O=c1[nH]c(=O)n(C/C=C/P(=O)(O)O)cc1Cl`: the outcome in the series filed under Homo sapiens [1] and in the series filed under Homo sapiens [2] was inactive.
Consider `CCOP(=O)(CC/C=C/Cn1ccc(=O)[nH]c1=O)OCC`, for which the result in the series listed under Homo sapiens [1] and in the series listed under Homo sapiens [2] was inactive.
With `Cc1cn(C/C=C/CP(=O)(OCOC(=O)C(C)(C)C)OCOC(=O)C(C)(C)C)c(=O)[nH]c1=O`, the EC50 (commonly the concentration needed to bring the measured effect to its halfway point) with Human alphaherpesvirus 3 [3] was 0.41 µM; in the series with Human alphaherpesvirus 3 [5], 0.19 µM; in the series on Human alphaherpesvirus 1 [6] it was 9.2 µM; in the series on Human alphaherpesvirus 2 it was 6.1 µM; in the series with Human alphaherpesvirus 1 [7] it was 3.1 µM; in the series with Human betaherpesvirus 5 it was over 40 µM. The result in the series filed under Homo sapiens [1] and in the series listed under Homo sapiens [2] was inactive. In [4], the CC50 (as a rule, the concentration at which the toxic effect on the cells reaches its halfway point) at 72 h was 35 µM. For the same compound, in series [4], the MCC at 72 h is at least 200 µM.
On to `O=c1[nH]c(=O)n([C@H]2C[C@H](O)[C@@H](CO)O2)cc1/C=C/Br` [BRIVUDINE], for which the EC50 with Human alphaherpesvirus 3 [3] was 0.012 µM; in the series on Human alphaherpesvirus 3 [5] it was over 100 µM; in the series with Human alphaherpesvirus 2, 30 µM; with Human betaherpesvirus 5, over 250 µM. Moreover, the CC50 at 72 h in [4] is over 250 µM. The compound also had an MCC at 72 h in [4] of over 250 µM.
Consider `CCOP(=O)(/C=C/Cn1ccc(=O)[nH]c1=O)OCC`, for which the result in the series filed under Homo sapiens [1] and in the series filed under Homo sapiens [2] was inactive.
For `O=c1[nH]c(=O)n(C/C=C/CCP(=O)(O)O)cc1Br`, the outcome in the series listed under Homo sapiens [1] and in the series filed under Homo sapiens [2] was inactive.
Consider `COP(=O)(C/C=C/Cn1cc(Cl)c(=O)[nH]c1=O)OC`, for which the result in the series listed under Homo sapiens [1] and in the series filed under Homo sapiens [2] was inactive.
In the case of `COP(=O)(C/C=C\Cn1cc(F)c(=O)n(C(=O)c2ccccc2)c1=O)OC`, the outcome in the series filed under Homo sapiens [1] and in the series filed under Homo sapiens [2] was inactive.
Turning to `CCOP(=O)(/C=C/Cn1cc(F)c(=O)[nH]c1=O)OCC`, the outcome in the series filed under Homo sapiens [1] and in the series filed under Homo sapiens [2] was inactive.
Take `COP(=O)(C/C=C\Cn1cc(C)c(=O)n(C(=O)c2ccccc2)c1=O)OC`: the result in the series filed under Homo sapiens [1] and in the series listed under Homo sapiens [2] was inactive.
With `COP(=O)(C/C=C\Cn1cc(F)c(=O)[nH]c1=O)OC`, the result in the series listed under Homo sapiens [1] and in the series filed under Homo sapiens [2] was inactive.
Regarding `CCOP(=O)(CC/C=C/Cn1cc(C)c(=O)[nH]c1=O)OCC`, the outcome in the series listed under Homo sapiens [1] and in the series listed under Homo sapiens [2] was inactive.
Regarding `O=c1[nH]c(=O)n(C/C=C/P(=O)(O)O)cc1F`, the result in the series listed under Homo sapiens [1] and in the series listed under Homo sapiens [2] was inactive.
With `O=c1[nH]c(=O)n(C/C=C/CP(=O)(O)O)cc1F`, the outcome in the series listed under Homo sapiens [1] and in the series listed under Homo sapiens [2] was inactive.
For `O=c1ccn(C/C=C/CCP(=O)(O)O)c(=O)[nH]1`, the outcome in the series filed under Homo sapiens [1] and in the series listed under Homo sapiens [2] was inactive.
As for `CCOP(=O)(CC/C=C/Cn1cc(Br)c(=O)n(C(=O)c2ccccc2)c1=O)OCC`, the outcome in the series filed under Homo sapiens [1] and in the series listed under Homo sapiens [2] was inactive.
Take `COP(=O)(C/C=C/Cn1cc(C)c(=O)n(C(=O)c2ccccc2)c1=O)OC`: the outcome in the series filed under Homo sapiens [1] and in the series listed under Homo sapiens [2] was inactive.
As to `CC(C)(C)C(=O)OCOP(=O)(C/C=C\Cn1cc(Br)c(=O)[nH]c1=O)OCOC(=O)C(C)(C)C`, the EC50 with Human alphaherpesvirus 3 [3] was 97 µM; with Human alphaherpesvirus 3 [5], 110 µM; in the series on Human alphaherpesvirus 1 [6], over 200 µM; in the series on Human alphaherpesvirus 2, 45 µM; in the series on Human alphaherpesvirus 1 [7] it was over 200 µM; with Human betaherpesvirus 5, over 200 µM. For the same compound, the result in the series listed under Homo sapiens [1] and in the series listed under Homo sapiens [2] was inactive. Also, in series [4], half-maximal cytotoxicity (CC50 at 72 h) was put at 70 µM. This compound yielded an MCC at 72 h in [4] of over 200 µM.
For `O=c1[nH]c(=O)n(C/C=C/P(=O)(O)O)cc1Br`, the result in the series listed under Homo sapiens [1] and in the series filed under Homo sapiens [2] was inactive.
On to `COP(=O)(C/C=C\Cn1cc(Br)c(=O)[nH]c1=O)OC`, for which the result in the series listed under Homo sapiens [1] and in the series listed under Homo sapiens [2] was inactive.
In the case of `Nc1nc2c(ncn2COC(CO)CO)c(=O)[nH]1` [GANCICLOVIR], the CC50 at 72 h in series [4] worked out at 164 µM. Further, the MCC at 72 h in series [4] was over 100 µM. The EC50 worked out at 3 µM with Human alphaherpesvirus 1 [6], 0.05 µM with Human alphaherpesvirus 2, 0.08 µM in the series on Human alphaherpesvirus 1 [7] and 5.2 µM in the series on Human betaherpesvirus 5.
